Source: US20130142882A1, “METHODS AND COMPOSITIONS FOR TREATMENT, MODIFICATION AND MANAGEMENT OF BONE CANCER PAIN” (GOLDEN BIOTECHNOLOGY CORPORATION, priority 2011, published 2013)
“And” between values parts separate entries of the source, which are not always exact repeats. Equal values may be shown once.

System: rat model of bone cancer pain (Walker 256 rat mammary gland carcinoma cells injected into the right tibia)
Experiment: Mechanical allodynia (Von Frey test) in a rat model of bone cancer pain
Format: in vivo, Rat (Sprague-Dawley)
Description: The objective of this study was to assess the potential anti-nociceptive and anti-tumourigenic effects of Compound 1, at doses of 15, 30 and 45 mg/kg, in an animal model of bone cancer pain. Metastasis of cancer cells to the bone was modeled by injecting Walker 256 rat mammary gland carcinoma cells into the medullary cavity of the right tibia (Mao-Yinga, et al. A rat model of bone cancer pain induced by intra-tibia inoculation of Walker 256 mammary gland carcinoma cells. Biochem Biophys Res Commun 2006; 345: 1292-1298). The development of mechanical allodynia was monitored using an established behavioural test (Von Frey test). Treatment administration was chronic, from the day of surgery, and administered twice daily for 21 days to determine whether there was a prophylactic effect on the development of mechanical allodynia. Zoledronic acid was used as a reference substance. No regulatory test guidelines were applicable to this study.
Rats have been studied in this model of bone cancer pain. The route of administration of Compound 1 and vehicle was oral. The doses of Compound 1 were 15, 30 and 45 mg/kg, twice a day (approximately 10 h apart) for 21 days.
The dose of zoledronic acid was 30 μg/kg, as a single administration, every second day from the day of surgery, based on historical data. The route of administration of zoledronic acid was subcutaneous.
The dose volume for test substance and vehicle treatments was 5 mL/kg. The vehicle for Compound 1 was corn oil. Each rat allocated to test substance or vehicle treatments received an oral dose, by gavage, twice daily (approximately 8 am and 6 pm) for 21 consecutive days. The dose volume for the reference substance treatment was 1 mL/kg. Each rat allocated to reference substance treatment received a single subcutaneous dose, by injection (approximately 8 am) every second day from the day of surgery.
Cell preparation. Walker 256 rat mammary gland carcinoma cells (obtained from the American Type Culture Collection (ATCC)) were harvested from sub-confluent cultures growing in vitro and the number of viable cells determined. Cells were then re-suspended in sterile phosphate buffered saline (PBS) at a concentration of 4×10^5 cells. Female Sprague-Dawley rats were intratibially injected in the right leg with 4×10^5 Walker 256 rat mammary gland carcinoma cells in a volume of 6 μL as detailed in Surgical procedure below.
Baseline behavioural testing. The rats were moved to the procedure room 5 days prior to behavioural testing. The rats were then housed, dosed and observed in the procedure room. The behavioural test was performed on all rats on 2 separate occasions prior to surgery, to establish baseline values. Pre-surgery baseline values were taken as the data from the final (second) day of testing (the data from the first day of testing was not included but classed as part of the acclimatisation).
Mechanical allodynia (Von Frey test): Each animal was placed in a wire mesh cage and a series of Von Frey filaments were applied to the plantar surface of the hind paw, from below. The filaments were applied in ascending order (starting with the weakest force), and the withdrawal threshold for both the left and right hind paws were evaluated. Each filament was indented on the mid-plantar surface of the foot to the point where it just started to bend; this was repeated approximately 8 to 10 times per filament at a frequency of approximately 1 Hz. The withdrawal threshold was defined as the lowest force of two or more consecutive Von Frey filaments to elicit a reflex withdrawal response (i.e. a brief paw flick).
Surgical procedure. The animals were surgically prepared over 2 days. Each rat was anaesthetised as necessary with isofluorane in […]. The surface around the incision site was shaved and sterilised. Under aseptic conditions, an incision was made in the skin over the top of the right tibia to expose the tibia head with minimal damage. […]

[1] = 15 mg/kg p.o. twice daily, Day 6, left paw
[2] = 15 mg/kg p.o. twice daily, Day 6, right paw
[3] = 15 mg/kg p.o. twice daily, Day 12, left paw
[4] = 15 mg/kg p.o. twice daily, Day 12, right paw
[5] = 15 mg/kg p.o. twice daily, Day 14, left paw
[6] = 15 mg/kg p.o. twice daily, Day 14, right paw
[7] = 15 mg/kg p.o. twice daily, Day 19, left paw
[8] = 15 mg/kg p.o. twice daily, Day 19, right paw
[9] = 15 mg/kg p.o. twice daily, Day 21, left paw
[10] = 15 mg/kg p.o. twice daily, Day 21, right paw
[11] = 15 mg/kg p.o. twice daily, Pre-Surgery, left paw
[12] = 15 mg/kg p.o. twice daily, Pre-Surgery, right paw
[13] = 30 mg/kg p.o. twice daily, Day 6, left paw
[14] = 30 mg/kg p.o. twice daily, Day 6, right paw
[15] = 30 mg/kg p.o. twice daily, Day 12, left paw
[16] = 30 mg/kg p.o. twice daily, Day 12, right paw
[17] = 30 mg/kg p.o. twice daily, Day 14, left paw
[18] = 30 mg/kg p.o. twice daily, Day 14, right paw
[19] = 30 mg/kg p.o. twice daily, Day 19, left paw
[20] = 30 mg/kg p.o. twice daily, Day 19, right paw
[21] = 30 mg/kg p.o. twice daily, Day 21, left paw
[22] = 30 mg/kg p.o. twice daily, Day 21, right paw
[23] = 30 mg/kg p.o. twice daily, Pre-Surgery, left paw
[24] = 30 mg/kg p.o. twice daily, Pre-Surgery, right paw
[25] = 45 mg/kg p.o. twice daily, Day 6, left paw
[26] = 45 mg/kg p.o. twice daily, Day 6, right paw
[27] = 45 mg/kg p.o. twice daily, Day 12, left paw
[28] = 45 mg/kg p.o. twice daily, Day 12, right paw
[29] = 45 mg/kg p.o. twice daily, Day 14, left paw
[30] = 45 mg/kg p.o. twice daily, Day 14, right paw
[31] = 45 mg/kg p.o. twice daily, Day 19, left paw
[32] = 45 mg/kg p.o. twice daily, Day 19, right paw
[33] = 45 mg/kg p.o. twice daily, Day 21, left paw
[34] = 45 mg/kg p.o. twice daily, Day 21, right paw
[35] = 45 mg/kg p.o. twice daily, Pre-Surgery, left paw
[36] = 45 mg/kg p.o. twice daily, Pre-Surgery, right paw

COC1=C(OC)C(O)C(C/C=C(\C)CC/C=C(\C)CCC=C(C)C)C(C)C1=O (stereo not drawn) [Compound 1, 4-hydroxy-2,3-dimethoxy-6-methyl-5-(3,7,11-trimethyldodeca-2,6,10-trienyl)cyclohex-2-enone]
Withdrawal Threshold (Log 10 (force (g) × 10 000)) on Day Post-Operative [1]: 5.33 Log 10 (force (g) × 10 000) | Withdrawal threshold (g) on day post-operative [1]: 21.65 g | Withdrawal Threshold (Log 10 (force (g) × 10 000)) on Day Post-Operative [2]: 5.31 Log 10 (force (g) × 10 000) | Withdrawal threshold (g) on day post-operative [2]: 20.81 g | Withdrawal Threshold (Log 10 (force (g) × 10 000)) on Day Post-Operative [3]: 5.19 Log 10 (force (g) × 10 000) | Withdrawal threshold (g) on day post-operative [3]: 16.27 g | Withdrawal Threshold (Log 10 (force (g) × 10 000)) on Day Post-Operative [4]: 4.99 Log 10 (force (g) × 10 000) | Withdrawal threshold (g) on day post-operative [4]: 11.12 g | Withdrawal Threshold (Log 10 (force (g) × 10 000)) on Day Post-Operative [5]: 5.18 Log 10 (force (g) × 10 000) | Withdrawal threshold (g) on day post-operative [5]: 16.61 g | Withdrawal Threshold (Log 10 (force (g) × 10 000)) on Day Post-Operative [6]: 4.91 Log 10 (force (g) × 10 000) | Withdrawal threshold (g) on day post-operative [6]: 9.97 g | Withdrawal Threshold (Log 10 (force (g) × 10 000)) on Day Post-Operative [7]: 5.08 Log 10 (force (g) × 10 000) | Withdrawal threshold (g) on day post-operative [7]: 13.83 g | Withdrawal Threshold (Log 10 (force (g) × 10 000)) on Day Post-Operative [8]: 4.76 Log 10 (force (g) × 10 000) | Withdrawal threshold (g) on day post-operative [8]: 8.36 g | Withdrawal Threshold (Log 10 (force (g) × 10 000)) on Day Post-Operative [9]: 5.06 Log 10 (force (g) × 10 000) | Withdrawal threshold (g) on day post-operative [9]: 13.74 ± 2.42 g and 13.74 g | Withdrawal Threshold (Log 10 (force (g) × 10 000)) on Day Post-Operative [10]: 4.80 Log 10 (force (g) × 10 000) | Withdrawal threshold (g) on day post-operative [10]: 7.82 ± 1.43 g and 7.82 g | Withdrawal Threshold (Log 10 (force (g) × 10 000)) on Day Post-Operative [11]: 5.33 Log 10 (force (g) × 10 000) | Withdrawal threshold (g) on day post-operative [11]: 21.79 g | Withdrawal Threshold (Log 10 (force (g) × 10 000)) on Day Post-Operative [12]: 5.33 Log 10 (force (g) × 10 000) | Withdrawal threshold (g) on day post-operative [12]: 21.79 g | Withdrawal Threshold (Log 10 (force (g) × 10 000)) on Day Post-Operative [13]: 5.35 Log 10 (force (g) × 10 000) | Withdrawal threshold (g) on day post-operative [13]: 22.55 g | Withdrawal Threshold (Log 10 (force (g) × 10 000)) on Day Post-Operative [14]: 5.32 Log 10 (force (g) × 10 000) | Withdrawal threshold (g) on day post-operative [14]: 21.02 g | Withdrawal Threshold (Log 10 (force (g) × 10 000)) on Day Post-Operative [15]: 5.24 Log 10 (force (g) × 10 000) | Withdrawal threshold (g) on day post-operative [15]: 18.34 g | Withdrawal Threshold (Log 10 (force (g) × 10 000)) on Day Post-Operative [16]: 5.00 Log 10 (force (g) × 10 000) | Withdrawal threshold (g) on day post-operative [16]: 11.15 g | Withdrawal Threshold (Log 10 (force (g) × 10 000)) on Day Post-Operative [17]: 5.16 Log 10 (force (g) × 10 000) | Withdrawal threshold (g) on day post-operative [17]: 15.71 g | Withdrawal Threshold (Log 10 (force (g) × 10 000)) on Day Post-Operative [18]: 4.86 Log 10 (force (g) × 10 000) | Withdrawal threshold (g) on day post-operative [18]: 8.55 g | Withdrawal Threshold (Log 10 (force (g) × 10 000)) on Day Post-Operative [19]: 5.12 Log 10 (force (g) × 10 000) | Withdrawal threshold (g) on day post-operative [19]: 14.04 g | Withdrawal Threshold (Log 10 (force (g) × 10 000)) on Day Post-Operative [20]: 4.91 Log 10 (force (g) × 10 000) | Withdrawal threshold (g) on day post-operative [20]: 9.07 g | Withdrawal Threshold (Log 10 (force (g) × 10 000)) on Day Post-Operative [21]: 5.05 Log 10 (force (g) × 10 000) | Withdrawal threshold (g) on day post-operative [21]: 11.40 ± 0.81 g and 11.40 g | Withdrawal Threshold (Log 10 (force (g) × 10 000)) on Day Post-Operative [22]: 4.82 Log 10 (force (g) × 10 000) | Withdrawal threshold (g) on day post-operative [22]: 8.15 ± 1.43 g and 8.15 g | Withdrawal Threshold (Log 10 (force (g) × 10 000)) on Day Post-Operative [23]: 5.33 Log 10 (force (g) × 10 000) | Withdrawal threshold (g) on day post-operative [23]: 21.79 g | Withdrawal Threshold (Log 10 (force (g) × 10 000)) on Day Post-Operative [24]: 5.33 Log 10 (force (g) × 10 000) | Withdrawal threshold (g) on day post-operative [24]: 21.79 g | Withdrawal Threshold (Log 10 (force (g) × 10 000)) on Day Post-Operative [25]: 5.35 Log 10 (force (g) × 10 000) | Withdrawal threshold (g) on day post-operative [25]: 22.55 g | Withdrawal Threshold (Log 10 (force (g) × 10 000)) on Day Post-Operative [26]: 5.35 Log 10 (force (g) × 10 000) | Withdrawal threshold (g) on day post-operative [26]: 22.55 g | Withdrawal Threshold (Log 10 (force (g) × 10 000)) on Day Post-Operative [27]: 5.31 Log 10 (force (g) × 10 000) | Withdrawal threshold (g) on day post-operative [27]: 20.81 g | Withdrawal Threshold (Log 10 (force (g) × 10 000)) on Day Post-Operative [28]: 5.16 Log 10 (force (g) × 10 000) | Withdrawal threshold (g) on day post-operative [28]: 15.98 g | Withdrawal Threshold (Log 10 (force (g) × 10 000)) on Day Post-Operative [29]: 5.35 Log 10 (force (g) × 10 000) | Withdrawal threshold (g) on day post-operative [29]: 22.48 g | Withdrawal Threshold (Log 10 (force (g) × 10 000)) on Day Post-Operative [30]: 5.30 Log 10 (force (g) × 10 000) | Withdrawal threshold (g) on day post-operative [30]: 20.41 g | Withdrawal Threshold (Log 10 (force (g) × 10 000)) on Day Post-Operative [31]: 5.29 Log 10 (force (g) × 10 000) | Withdrawal threshold (g) on day post-operative [31]: 20.12 g | Withdrawal Threshold (Log 10 (force (g) × 10 000)) on Day Post-Operative [32]: 5.24 Log 10 (force (g) × 10 000) | Withdrawal threshold (g) on day post-operative [32]: 18.58 g | Withdrawal Threshold (Log 10 (force (g) × 10 000)) on Day Post-Operative [33]: 5.29 Log 10 (force (g) × 10 000) | Withdrawal threshold (g) on day post-operative [33]: 20.12 ± 1.67 g and 20.12 g | Withdrawal Threshold (Log 10 (force (g) × 10 000)) on Day Post-Operative [34]: 5.25 Log 10 (force (g) × 10 000) | Withdrawal threshold (g) on day post-operative [34]: 19.06 ± 2.17 g and 19.06 g | Withdrawal Threshold (Log 10 (force (g) × 10 000)) on Day Post-Operative [35]: 5.33 Log 10 (force (g) × 10 000) | Withdrawal threshold (g) on day post-operative [35]: 21.79 g | Withdrawal Threshold (Log 10 (force (g) × 10 000)) on Day Post-Operative [36]: 5.33 Log 10 (force (g) × 10 000) | Withdrawal threshold (g) on day post-operative [36]: 21.79 g
